# Reference: patent US7186879B2, “Screening systems and methods for identifying modulators of xenobiotic metabolism” (Baylor College of Medicine, priority 2001, dated 2007)
# How the values were obtained:
# hepatocytes = test: Hepatocyte proliferation (BrdU incorporation); type: in vivo, mouse; conditions: wild-type animals
# Experimental: FIG. 3B is a set of pictures of PB-treated, TCPOBOP-treated, or control mice that were treated with BrdU for two hours before their liver tissues were harvested.
# To determine the proliferation of hepatocytes following PB or TCPOBOP treatment, mice pretreated with corn oil, PB, or TCPOBOP received a single intraperitoneal dose of BrdU/FdU (2 ml/100 g, Amersham). Mice were sacrificed approximately 2 hours after BrdU administration. BrdU incorporation was determined using a mouse anti-BrdU monoclonal antibody (DAKO Corporation) and Vectastain ABC Kit (Vector Laboratories Inc.) (FIG. 3B), using standard procedures.
# CYP2B10 [1] = test: In situ hybridization of CYP2B10 in small intestine; conditions: for CYP2B10 expression in the small intestine: 3 days treatment; for number of grains per cell, with or without treatment: CAR −/− animals; for number of grains per cell, with or without treatment / number of grains per cell, treated versus untreated: small intestine
# CYP2B10 [2] = test: Northern blot of CYP2B10 mRNA in liver of wild-type and CAR knockout mice
# Experimental: At least three mice between about 8–10 weeks old were used for each treatment. Mice were pretreated by intraperitoneal injection with corn oil, PB (100 mg/kg, Sigma), or TCBOPOP (3 mg/kg) for the indicated time. For a three day PB treatment, mice were injected intraperitoneally three times with PB, at one injection per day.
# Approximately 20 μg of total RNA from individual mouse livers was subjected to Northern blot analysis (FIG. 1C). A mouse CAR cDNA probe was used to reveal the absence of CAR transcripts in the CAR null mice. Probes for CYP2B10 were prepared by RT-PCR with mouse liver total RNA using Superscript One-step RT-PCR System (Life Technologies).
# CYP enzyme activity = test: Zoxazolamine paralysis test; conditions: for effect of pretreatment on paralysis: CAR −/− mice; for duration of zoxazolamine-induced paralysis: 3-day pretreatment, zoxazolamine 300 mg/kg i.p.; for animals that died: female CAR −/− mice after zoxazolamine; for effect of pretreatment on duration of paralysis: wild-type animals
# Experimental: In these experiments, mice were pretreated for three days with PB or TCPOBOP, after which time they were given a single intraperitoneal injection of zoxazolamine (300 mg/kg). Paralysis time was recorded as the time when the mice were able to right themselves repeatedly.
# [3] = test system: wild-type and CAR knockout mice; test: APAP toxicity after pretreatment with inducers (serum ALT, histology); type: in vivo, mouse; conditions: APAP 250 mg/kg; for hepatotoxicity, inducer plus APAP: CAR null mice; for liver histology after pretreatment and APAP: wild-type animals; for ALT levels and hepatic necrosis, inducer plus APAP: wild-type, 24 hours
# Experimental: CAR (+/+) or CAR (−/−) animals pretreated with phenobarbital (PB), TCPOBOP (TC), or vehicle alone were administered a 250 mg/kg dose of APAP by intraperitoneal injection (n=5–7 per treatment group) (FIG. 11A). Serum was collected and alanine aminotransferase (ALT) levels were measured after 24 hours. Liver sections from different treatments were examined by histological staining (FIG. 11B). Liver samples from all treated animals were analyzed but only representative histology is presented. […] CAR (+/+) or CAR (−/−) animals were pretreated with PB, TCPOBOP (TC), or vehicle alone for three days (FIG. 11C). […] Liver samples treated as indicated were collected two hours after APAP and GSH levels were measured (n=5–7) (FIG. 11D).
# The effect of PB and the potent CAR agonist TCPOBOP on APAP toxicity was examined in wild-type and CAR knockout mice. Both strains of mice were treated with inducers or the vehicle control, followed by 250 mg/kg APAP. For these studies, mice were kept in a pathogen-free animal facility under standard 12 hour light/12 hour dark cycle and fed standard rodent chow and water ad libitum. At least five mice between 8 and 10 weeks old were used in each treatment group. For 3-day PB (100 mg/kg) treatment, mice were injected intraperitoneally three times, one injection per day. TCPOBOP (3 mg/kg) and/or APAP were injected intraperitoneally. Phenobarbital and TCPOBOP were suspended or dissolved in corn oil, and APAP was dissolved in basic PBS (pH=11). PB and APAP were purchased from Sigma (St Louis, Mo.); TCPOBOP was a gift from Dr. Stephen Safe.
# For histologic examination of the treated mice, the left lobe of the livers was removed and immediately fixed in 4% formaldehyde-PBS solution, embedded in paraffin, sectioned at 5 μm, and stained with hematoxylin and eosin. Samples were examined under a light microscope. For RNA studies, total RNA was extracted using TRIzol Reagent (Invitrogen Life Technologies, Carlsbad, Calif.) according to the manufacture's instruction. Equivalent amount of RNA from 3–5 mice were pooled and 10 μg of each sample was subjected to northern blot analysis. […] Preparation of probes for CYP2B10 and CYP3A11 were described as previously (Wei et al., Nature 407:920–923, 2000 and Zelko et al., Mol Cell Biol 21:2838–2846, 2001). PCR primers used were: CYP1A2: 5′-[…]-3′ (SEQ ID NO: 19) and 5′-[…]-3′ (SEQ ID NO: 20), CYP2E1: 5′-[…]-3′ (SEQ ID NO: 21) and 5′-[…]-3′ (SEQ ID NO: 22), GSTPi: 5′-[…]-3′ (SEQ ID NO: 23) and 5′-[…]-3′ (SEQ ID NO: 24). Hepatic non-protein thiol was measured as an indication of hepatic GSH content. Mice were sacrificed two hours after intraperitoneal injection with APAP. Livers were removed and immediately homogenized in four volumes of 5% trichloroacetic acid and then centrifuged at 1,600×g for 15 minutes. Supernatant (0.5 ml) was mixed with 1.5 ml 0.1 mM Ellman's reagent [5,5′-dithio-bis(2-nitrobenzoic acid)] (Sigma, St Louis, Mo.) and allowed to stand at room temperature for 15 minutes. Absorbance was read at 412 nm using GSH solutions as quantitative standards.
# murine CAR [4] = target: T1, murine CAR (Mus musculus, UniProt O35627); conditions: mice expressing only murine CAR (heterozygous, no transgene), 24 hours
# T1 sequence (O35627 1-358): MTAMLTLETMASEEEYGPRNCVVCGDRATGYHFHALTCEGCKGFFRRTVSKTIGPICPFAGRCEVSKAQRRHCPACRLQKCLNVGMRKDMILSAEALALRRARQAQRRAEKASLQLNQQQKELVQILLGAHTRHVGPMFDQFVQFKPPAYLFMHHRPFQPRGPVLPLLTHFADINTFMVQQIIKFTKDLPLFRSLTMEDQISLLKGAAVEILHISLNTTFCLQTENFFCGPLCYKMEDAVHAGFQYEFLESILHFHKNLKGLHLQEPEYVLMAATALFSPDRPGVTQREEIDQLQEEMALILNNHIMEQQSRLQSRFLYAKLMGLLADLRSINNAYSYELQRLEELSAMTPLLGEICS
# Experimental: (§1) Total RNA was prepared from the livers of the individual mice, and CYP2B10 mRNA expression was assessed by Northern blotting.
# (§2) Mice heterozygous for the murine CAR gene mutation and lacking the human CAR transgene express only murine CAR. […] Mice homozygous for the murine CAR gene mutation and carrying the human CAR transgene express only human CAR in the liver.
# murine CAR [5] = conditions: no functional CAR (homozygous mutation, no transgene), 24 hours
# Experimental: as §1, §2
# [6] = test system: wild-type and CAR −/− mice; test: Cocaine-mediated hepatotoxicity, serum ALT; conditions: for evidence of liver damage after cocaine: CAR −/− animals; for serum ALT as acute response to cocaine: male wild-type mice pretreated three days, cocaine 30 mg/kg
# Experimental: FIG. 4 is a bar graph showing the effect of PB or TCPOBOP on cocaine-mediated hepatotoxicity, measured as serum alanine aminotransferase (ALT) activity. Male mice were pretreated with PB or TCPOBOP for three days. Twenty-four hours after the last dose, one injection of cocaine was given to the animals. Blood was drawn 20 hours after cocaine treatment for determination of serum ALT activity.
# Blood was drawn from the eye for determination of serum ALT activity.
Structure (SMILES),BrdU-positive hepatocytes (hepatocytes),CYP2B10 expression in the small intestine (CYP2B10 [1]; CAR knockout mice),"number of grains per cell, with or without treatment (CYP2B10 [1])",CYP2B10 expression in the small intestine (CYP2B10 [1]; wild-type mice),"number of grains per cell, treated versus untreated (CYP2B10 [1]; wild-type mice)",induction of expression of CYP2B10 mRNA (CYP2B10 [2]; CAR knockout animals),induction of expression of CYP2B10 mRNA (CYP2B10 [2]; wild-type male or female mice),effect of pretreatment on paralysis (CYP enzyme activity),duration of zoxazolamine-induced paralysis (CYP enzyme activity; female CAR (+/+) mice),duration of zoxazolamine-induced paralysis (CYP enzyme activity; female CAR (−/−) mice),animals that died (CYP enzyme activity),duration of zoxazolamine-induced paralysis (CYP enzyme activity; male CAR (+/+) mice),duration of zoxazolamine-induced paralysis (CYP enzyme activity; male CAR (−/−) mice),effect of pretreatment on duration of paralysis (CYP enzyme activity),"hepatotoxicity, inducer plus APAP [3]",liver histology after pretreatment and APAP [3],"ALT levels and hepatic necrosis, inducer plus APAP [3]",induction of CYP2B10 mRNA (murine CAR [4]),induction of CYP2B10 mRNA (murine CAR [5]),evidence of liver damage after cocaine [6],also measured
"CCC1(c2ccccc2)C(=O)NC(=O)NC1=O [PB, phenobarbital]",presence of BrdU-positive hepatocytes,not detected,not significantly different,induced CYP2B10 expression,approximately two-fold higher,absent,robust induction,not affected,not paralyzed,died,two animals from each group,<20 min,>300 min,significantly decreased the duration of paralysis,no such hepatotoxicity,extensive hepatic centrilobular necrosis,strongly elevated ALT levels and hepatic necrosis,induction of CYP2B10 mRNA,no response,not observed,serum ALT as acute response to cocaine [6]: significant increase
"Clc1cnc(Oc2ccc(Oc3ncc(Cl)cc3Cl)cc2)c(Cl)c1 [TCPOBOP, 1,4-bis[2-(3,5-dichloropyridyloxy)]benzene]",presence of BrdU-positive hepatocytes,not detected,not significantly different,induced CYP2B10 expression,approximately two-fold higher,absent,robust induction,not affected,not paralyzed,died,two animals from each group,<20 min,>300 min,significantly decreased the duration of paralysis,no such hepatotoxicity,extensive hepatic centrilobular necrosis,strongly elevated ALT levels and hepatic necrosis,induction of CYP2B10 mRNA,no response,not observed,serum ALT as acute response to cocaine [6]: significant increase
